Literature values as cited in patent publication US9572848B1, “Composition of matter for sexual dysfunction” (Aemes Research L.L.L.P., priority 2014, dated 2017).

Experiments:
[1] = test system: growth hormone (GH) levels; details: oral arginine, 9-gram dose; placebo 2.9 (+/−0.7)
[2] = test system: blood pressure; details: meta-analysis

N=C(N)NCCC[C@H](N)C(=O)O [L-arginine]
Mean peak GH level [1]: 6.4 (+/−1.3) μg/L
Reduction of DBP, pooled estimate [2]: 2.7 mmHg
Reduction of SBP, pooled estimate [2]: 5.4 mmHg
